# Measured values reported in article PMC11784099 (Journal of Virology, 2024).
# Like-named read-outs stand apart in the source and are kept apart here.
# Assays:
# [1] = test system: Pseudorabies virus (Ra strain); test: microbe, parasite or virus in culture; type: cell-based
# [2] = test system: cGAS/STING signaling pathway; type: cell-based, pigs
# in vitro = settings: pig
# cGAMP production = type: cell-based, pigs
# [3] = test system: IRF3 phosphorylation (cGAS/STING signaling pathway); type: cell-based, pigs
# p-IRF3 = type: cell-based, pigs
# [4] = test system: JAK/STAT signaling pathway; type: cell-based, pigs
# [5] = test system: JAK/STAT signaling pathway; type: cell-based, pigs; remark: listed apart in the source
# IFN-β promoter = type: cell-based
# [6] = test system: cGAS/STING signaling pathway; type: cell-based
# PRV [7] = test system: PRV; set-up: species or system mice; settings: mouse, in vivo
# [8] = test system: type I interferon signaling pathway; set-up: species or system mice; settings: mouse, in vivo
# [9] = test system: type I interferon signaling pathway; set-up: species or system mice; settings: mouse, in vivo; remark: listed apart in the source
# IFN-β = test system: IFN-β; set-up: species or system mice; settings: mouse, in vivo
# PRV [10] = settings: mouse, in vivo; cited from earlier work
# [11] = Suid alphaherpesvirus 1, PK-15, 1 h
compound,measurement,setting,value
O=c1cc(-c2ccccc2)oc2cc(O)c(O)c(O)c12 [Baicalein],IC50,[1]; read-out: IC50,291 µM
same,mRNA expression level of cGAS,[2],significantly enhance
same,mRNA level of IRF3,[2],no discernible differences
same,mRNA level of STING,[2],significantly increase
same,mRNA levels of IFN-β,[2],significantly elevate
same,CC50,PK-15 cells,563 µM
COc1ccc(-c2coc3cc(O)cc(O)c3c2=O)cc1 [Biochanin A],CC50,PK-15 cells,382 µM
O=c1cc(-c2ccccc2)oc2cc(O)cc(O)c12 [Chrysin],CC50,in vitro,107 µM
O=C1c2c(O)cc(O)cc2O[C@H](c2cc(O)c(O)c(O)c2)[C@H]1O [Dihydromyricetin],IC50,[1]; [11],161 µM
same,CC50,in vitro,914 µM
O=c1c(O)c(-c2ccc(O)c(O)c2)oc2cc(O)ccc12 [Fisetin],IC50,[1],–^b
same,CC50,in vitro,717 µM
COc1ccc(-c2coc3cc(O)ccc3c2=O)cc1 [Formononetin],CC50,in vitro,228 µM
COc1ccc([C@@H]2CC(=O)c3c(O)cc(O[C@@H]4O[C@H](CO[C@@H]5O[C@@H](C)[C@H](O)[C@@H](O)[C@H]5O)[C@@H](O)[C@H](O)[C@H]4O)cc3O2)cc1O [Hesperidin],CC50,PK-15 cells,> 238 µM
COc1ccc(-c2oc3c(CC=C(C)C)c(O[C@@H]4O[C@H](CO)[C@@H](O)[C@H](O)[C@H]4O)cc(O)c3c(=O)c2O[C@@H]2O[C@@H](C)[C@H](O)[C@@H](O)[C@H]2O)cc1 [Icariin],CC50,in vitro,> 382 µM
O=c1c(O)c(-c2ccc(O)cc2)oc2cc(O)cc(O)c12 [Kaempferol],IC50,[1]; [11],25.6 µM
same,CC50,in vitro,255 µM
O=C1C[C@@H](c2ccc(O)cc2)Oc2cc(O)ccc21 [Liquiritigenin],IC50,[1]; read-out: IC50,323 µM
same,CC50,PK-15 cells,790 µM
O=c1cc(-c2ccc(O)c(O)c2)oc2cc(O)cc(O)c12 [Lutelin],IC50,[1]; [11],36.9 µM
same,mRNA expression level of cGAS,[2],significantly enhance
same,mRNA level of IRF3,[2],no discernible differences
same,mRNA level of STING,[2],significantly increase
same,CC50,in vitro,195 µM
O=c1c2cc(O)c(O)cc2oc2cc(O)c([C@@H]3O[C@H](CO)[C@@H](O)[C@H](O)[C@H]3O)c(O)c12 [Mangiferin],CC50,in vitro,> 1050 µM
O=c1c(O)c(-c2cc(O)c(O)c(O)c2)oc2cc(O)cc(O)c12 [Myricetin],IC50,[1]; [11],42.7 µM
same,mRNA expression level of cGAS,[2],significantly enhance
same,mRNA level of IRF3,[2],significantly increase
same,mRNA level of STING,[2],significantly increase
same,mRNA levels of IFN-β,[2],significantly elevate
same,"mRNA levels of cGAS, STING, TBK1, IRF3, IRF7 and IFN-β",[2],all increased
same,increase in cGAMP production compared with the blank group,cGAMP production,~1.5 fold
same,levels of p-IRF3 and p-IRF3/IRF3,[3],significantly elevated
same,total amount of IRF3 phosphorylation (fluorescence intensity),p-IRF3,significant enhancement
same,"transcriptional levels of JAK1, STAT1, IRF9, ISG15, ISG56 and ISG54",[4],notable elevation
same,effect proteins ISG15 and OAS1,[5],significantly increased
same,"protein levels of STAT1, p-STAT1 and p-STAT1/STAT1",[5],significantly higher
same,"expression level of the IFN-β promoter, ratio to infected control group",IFN-β promoter,~2 fold
same,"protein expressions of cGAS, STING, TBK1, IRF3 and p-IRF3",[6],significantly increase
same,mortality rate at 4 dpi,PRV [7],70%
same,"transcriptional levels of cGAS, STING, TBK1, IRF3, IRF7, IFN-β, ISG56 and ISG54 in heart, liver, spleen, lung and kidney",[8],significantly higher
same,"expression levels of antiviral effectors MX1, OAS1 and ISG15 in brain and kidney",[9],higher expression levels
same,production of IFN-β in tissues (ELISA),IFN-β,significantly promote
same,mortality rate at 4 dpi,PRV [10],0%
same,mortality rate at 5 dpi,PRV [10],30%
same,reduction in viral copies in the kidney,PRV [10],up to 80 fold
same,CC50,in vitro,> 1000 µM
O=C1C[C@@H](c2ccc(O)cc2)Oc2cc(O)cc(O)c21 [Naringenin],mRNA expression level of cGAS,[2],significantly enhance
same,mRNA level of IRF3,[2],no discernible differences
same,mRNA levels of IFN-β,[2],significantly elevate
COc1ccc([C@@H]2CC(=O)c3c(O)cc(O[C@@H]4O[C@H](CO)[C@@H](O)[C@H](O)[C@H]4O[C@@H]4O[C@@H](C)[C@H](O)[C@@H](O)[C@H]4O)cc3O2)cc1O [Neohesperidin],CC50,PK-15 cells,> 1000 µM
COc1cc2c(cc1OC)-c1cc3ccc(OC)c(OC)c3c[n+]1CC2 [Palmatine],CC50,PK-15 cells,1250 µM
OC[C@H]1O[C@@H](Oc2cc(O)cc(/C=C/c3ccc(O)cc3)c2)[C@H](O)[C@@H](O)[C@@H]1O [Polydatin],CC50,in vitro,> 466 µM
O=c1c(O)c(-c2ccc(O)c(O)c2)oc2cc(O)cc(O)c12 [Quercetin],CC50,PK-15 cells; pig,890 µM
same,CC50,in vitro,449 µM
C[C@@H]1O[C@@H](OC[C@H]2O[C@@H](Oc3c(-c4ccc(O)c(O)c4)oc4cc(O)cc(O)c4c3=O)[C@H](O)[C@@H](O)[C@@H]2O)[C@H](O)[C@H](O)[C@H]1O [Rutin],CC50,in vitro,> 389 µM
O=C(O)[C@H]1O[C@@H](Oc2cc3oc(-c4ccc(O)cc4)cc(=O)c3c(O)c2O)[C@H](O)[C@@H](O)[C@@H]1O [Scutellarin],CC50,in vitro,> 213 µM
COc1cc(C2Oc3cc([C@H]4Oc5cc(O)cc(O)c5C(=O)[C@@H]4O)ccc3OC2CO)ccc1O (some centres unmarked) [Silibinin],IC50,[1]; [11],203 µM
same,CC50,in vitro,392 µM
CC1(C)[C@@H](O[C@H]2O[C@H](C(=O)O)[C@@H](O)[C@H](O)[C@H]2O[C@@H]2O[C@H](C(=O)O)[C@@H](O)[C@H](O)[C@H]2O)CC[C@]2(C)[C@H]3C(=O)C=C4[C@@H]5C[C@@](C)(C(=O)O)CC[C@]5(C)CC[C@@]4(C)[C@]3(C)CC[C@@H]12 [glycyrrhizic acid],IC50,[1]; [11],23.2 to 323 µM
Oc1ccc(/C=C/c2cc(O)cc(O)c2)cc1 [resveratrol],IC50,[1]; [11],23.2 to 323 µM
Pueraria,CC50,PK-15 cells,> 461 µM
